Results as given in US20250177391A1, “INHIBITORS OF DDR1 AND DDR2 FOR THE TREATMENT OF ARTHRITIS” (President and Fellows of Harvard College, priority 2022, published 2025).
≈ marks a conversion by molar mass, not a printed value. Entries after “also recorded” stand apart in the source; their conditions may differ.

Legend:
[1] = target: DDR1 (h) (Homo sapiens (Human), UniProt Q08345); assay: DDR1 kinase inhibition, [γ-33P]-ATP filter assay; assay type: biochemical
Experimental: DDR1 (h) was incubated with 8 mM MOPS pH 7.0, 0.2 mM EDTA, 250 μM KKKSPGEYVNIEFG (SEQ ID NO: 1), 10 mM magnesium acetate and [γ-33P]-ATP (specific activity and concentration as required). The reaction was initiated by the addition of the Mg/ATP mix. After incubation for 40 minutes at room temperature, the reaction was stopped by the addition of phosphoric acid to a concentration of 0.5%. An aliquot of the reaction was then spotted onto a filter and washed four times for 4 minutes in 0.425% phosphoric acid and once in methanol prior to drying and scintillation counting.

[2] = target: DDR2 (h) (Homo sapiens (Human), UniProt Q16832); assay: DDR2 kinase inhibition, [γ-33P]-ATP filter assay; assay type: biochemical
Experimental: DDR2 (h) was incubated with 8 mM MOPS pH 7.0, 0.2 mM EDTA, 250 μM KKSRGDYMTMQIG (SEQ TD NO: 2), 10 mM MnCl2, 10 mM magnesium acetate and [γ-33P]-ATP (specific activity and concentration as required). The reaction was initiated by the addition of the Mg/ATP mix. After incubation for 40 minutes at room temperature, the reaction was stopped by the addition of phosphoric acid to a concentration of 0.5%. An aliquot of the reaction was then spotted onto a filter and washed four times for 4 minutes in 0.425% phosphoric acid and once in methanol prior to drying and scintillation counting.

[3] = tested on: 97 kinases (90 WT kinase and 7 mutants); assay: Kinase selectivity profiling (ScanEDGE, DiscoveRx) competition binding, qPCR readout; conditions: for Selectivity Score S(1) / Selectivity Score S(10) / Selectivity Score S(35): number of hits/number of assays, excluding mutants, 1000 nM; for # of Hits, S(35) / # of Hits, S(10) / # of Hits, S(1): screened at 1000 nM; for # of Hits, S(35): kinases inhibited by >65%; for # of Hits, S(10): kinases inhibited by >90%; for # of Hits, S(1): kinases inhibited by >99%
Source text: (§1) Compounds that bind the kinase active site and directly (sterically) or indirectly (allosterically) prevent kinase binding to the immobilized ligand, will reduce the amount of kinase captured on the solid support. […] Screening “hits” are identified by measuring the amount of kinase captured in test versus control samples by using a quantitative qPCR method that detects the associated DNA label. Dissociation constants (Kds) for test compound-kinase interactions can be calculated by measuring the amount of kinase captured on the solid support as a function of the test compound concentration.
(§2) Kinase-tagged T7 phage strains were grown in parallel in 24-well blocks in an E. coli host derived from the BL21 strain. E. coli were grown to log-phase and infected with T7 phage from a frozen stock (multiplicity of infection=0.4) and incubated with shaking at 32° C. until lysis (90-150 minutes). The lysates were centrifuged (6,000×g) and filtered (0.2 μm) to remove cell debris. The remaining kinases were produced in HEK-293 cells and subsequently tagged with DNA for qPCR detection. Streptavidin-coated magnetic beads were treated with biotinylated small molecule ligands for 30 minutes at room temperature to generate affinity resins for kinase assays. The liganded beads were blocked with excess biotin and washed with blocking buffer (SeaBlock (Pierce), 1% BSA, 0.05% Tween 20, 1 mM DTT) to remove unbound ligand and to reduce non-specific phage binding. Binding reactions were assembled by combining kinases, liganded affinity beads, and test compounds in 1x binding buffer (20% SeaBlock, […], 0.05% Tween 20, 6 mM DTT). Test compounds were prepared as 40x stocks in 100% DMSO and directly diluted into the assay. All reactions were performed in polypropylene 384-well plates in a final volume of 0.02 mL. The assay plates were incubated at room temperature with shaking for 1 hour and the affinity beads were washed with wash buffer (1×PBS, 0.05% Tween 20). The beads were then re-suspended in elution buffer (1×PBS, 0.05% Tween […] non-biotinylated affinity ligand) and incubated at room temperature with shaking for 30 minutes. The kinase concentration in the eluates was measured by qPCR.
(§3) The compounds were screened at 1000 nM, and results for primary screen binding interactions were determined as “% Ctrl”. % Ctrl=[(test compound signal−positive control signal)/(negative control signal−positive control signal)]*100. Negative control was 100% DMSO. Test compounds were Compounds 1-4. Positive control was a control compound.
Selectivity Score or S-score is a quantitative measure of compound selectivity for DDR2. It was calculated by dividing the number of kinases that compounds bind to by the total number of distinct kinases tested, excluding mutant variants. S=number of hits/number of assays. % Ctrl was used as a potency threshold. Selectivity score values of CS analogs provided in Table 2 reflect the number of kinases inhibited by >65% (S35), >90% (S10), or 99% (S1) by Compounds 1-4.

[4] = target: p38-alpha (Homo sapiens (Human), UniProt Q16539); assay: Binding to p38-alpha, % of DMSO control (kinase binding screen); conditions: smaller numbers indicate stronger binding; screened at 1000 nM
Source text: as §1, §2, §3
Table 3 provides binding affinity scores for p38-alpha as a percent relative to DMSO control. Smaller numbers indicate stronger binding.

[5] = Solubility in pH 7.4 phosphate buffer; assay type: physicochemical; conditions: aqueous buffer
[6] = Stability in HBSS buffer; assay type: physicochemical
[7] = Stability in plasma; assay type: in vitro ADME; conditions: all animals
[8] = Caco-2 permeability; assay type: in vitro ADME; conditions: human, Caco-2; Bi-directional; read-out: Caco-2 permeability, bidirectional efflux ratio
[9] = tested on: Caco-2; assay: Caco-2 permeability; assay type: in vitro ADME
[10] = Liver S9 stability (SD rat, beagle, human), overall; assay type: in vitro ADME
[11] = Liver S9 stability, rat; assay type: in vitro ADME; conditions: SD
[12] = Liver S9 stability, human; assay type: in vitro ADME
[13] = Liver S9 stability, dog; assay type: in vitro ADME; conditions: beagle
[14] = Stability in simulated synovial fluid; assay type: physicochemical
[15] = PK following IV dosing in male SD rats; conditions: rat, in vivo, IV 1 mg/kg
[16] = tested on: articular cartilage of mouse knee joints; assay: DMM surgery injurious mouse model of osteoarthritis, knee articular cartilage; assay type: in vivo; conditions: for Average articular cartilage score: treatment from 4 weeks after surgery
Experimental: Based on a pilot experiment,^1 the sample size of minimum 6 is required by the power analysis to achieve the specified confidence interval (95%) with at least 50% reduction of the score in the treatment group. Mouse knee joints were subjected to DMM surgery. Four weeks following the surgery, mice were treated with compound 3. Significant disparity was found in the progression of articular cartilage degeneration in knee joints with or without the treatment of compound 3 (FIG. 1).
The condition of the articular cartilage was also evaluated by the scoring system.^3 At 8 weeks after DMM surgery, the average scores for mice without and with treatment using compound 3 were 2.50 and 1.00, respectively. At 12 weeks following DMM surgery, the average scores were 4.75 for mice not treated with compound 3 and 2.83 for mice treated with compound 3. […] In addition, osteophytes and other abnormal morphology were not observed in the subchondral bone and synovial tissue in mice with or without the treatment with compound 3.

[17] = tested on: DDR2; assay: Protein expression of DDR2 in articular cartilage after DMM (staining); assay type: in vivo, mouse; conditions: 8 weeks after DMM
Source text: (§4) Inhibitory induction of Ddr2 and Mmp-13 in articular cartilage of knee joints was observed after treatment with the compound 3. The protein expressions of Ddr2 and Mmp-13 were examined in the articular cartilage of mouse knee joints at 8 weeks after DMM, with or without the treatment with compound 3.

[18] = tested on: Mmp-13; assay: Protein expression of Mmp-13 in articular cartilage after DMM (staining); assay type: in vivo, mouse; conditions: 8 weeks after DMM
Source text: as §4

p38-alpha, sequence (Q16539 whole entry): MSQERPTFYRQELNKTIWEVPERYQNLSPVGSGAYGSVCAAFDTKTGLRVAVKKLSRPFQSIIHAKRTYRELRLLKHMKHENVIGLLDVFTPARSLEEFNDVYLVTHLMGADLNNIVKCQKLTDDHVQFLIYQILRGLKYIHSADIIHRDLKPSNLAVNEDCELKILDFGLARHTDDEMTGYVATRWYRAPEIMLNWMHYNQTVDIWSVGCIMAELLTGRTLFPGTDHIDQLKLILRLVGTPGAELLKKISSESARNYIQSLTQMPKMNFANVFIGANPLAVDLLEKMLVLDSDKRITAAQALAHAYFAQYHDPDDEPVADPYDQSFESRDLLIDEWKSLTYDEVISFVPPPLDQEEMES
DDR2 (h), sequence (Q16832 22-855): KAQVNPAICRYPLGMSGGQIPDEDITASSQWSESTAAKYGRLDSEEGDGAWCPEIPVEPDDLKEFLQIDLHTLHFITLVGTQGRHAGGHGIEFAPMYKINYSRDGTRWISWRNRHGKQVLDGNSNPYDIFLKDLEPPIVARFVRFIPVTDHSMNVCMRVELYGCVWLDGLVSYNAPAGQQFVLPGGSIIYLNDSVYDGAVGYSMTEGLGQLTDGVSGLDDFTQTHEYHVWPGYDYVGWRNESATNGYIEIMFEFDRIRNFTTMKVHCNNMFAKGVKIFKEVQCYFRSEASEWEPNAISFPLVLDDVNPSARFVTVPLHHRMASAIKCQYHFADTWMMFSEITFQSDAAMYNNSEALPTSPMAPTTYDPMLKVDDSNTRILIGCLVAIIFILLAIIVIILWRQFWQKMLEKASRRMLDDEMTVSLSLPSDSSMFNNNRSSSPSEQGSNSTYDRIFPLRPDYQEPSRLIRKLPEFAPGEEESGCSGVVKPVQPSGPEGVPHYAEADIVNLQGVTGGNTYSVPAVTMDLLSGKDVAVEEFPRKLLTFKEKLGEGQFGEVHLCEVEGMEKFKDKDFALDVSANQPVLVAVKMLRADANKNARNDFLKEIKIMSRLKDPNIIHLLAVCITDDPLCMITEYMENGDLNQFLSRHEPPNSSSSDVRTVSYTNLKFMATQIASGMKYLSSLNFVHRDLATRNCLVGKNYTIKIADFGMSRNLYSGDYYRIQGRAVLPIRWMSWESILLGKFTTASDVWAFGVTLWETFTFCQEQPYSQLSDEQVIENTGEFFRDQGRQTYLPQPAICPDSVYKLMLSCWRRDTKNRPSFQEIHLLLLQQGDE
DDR1 (h), sequence (Q08345 19-913): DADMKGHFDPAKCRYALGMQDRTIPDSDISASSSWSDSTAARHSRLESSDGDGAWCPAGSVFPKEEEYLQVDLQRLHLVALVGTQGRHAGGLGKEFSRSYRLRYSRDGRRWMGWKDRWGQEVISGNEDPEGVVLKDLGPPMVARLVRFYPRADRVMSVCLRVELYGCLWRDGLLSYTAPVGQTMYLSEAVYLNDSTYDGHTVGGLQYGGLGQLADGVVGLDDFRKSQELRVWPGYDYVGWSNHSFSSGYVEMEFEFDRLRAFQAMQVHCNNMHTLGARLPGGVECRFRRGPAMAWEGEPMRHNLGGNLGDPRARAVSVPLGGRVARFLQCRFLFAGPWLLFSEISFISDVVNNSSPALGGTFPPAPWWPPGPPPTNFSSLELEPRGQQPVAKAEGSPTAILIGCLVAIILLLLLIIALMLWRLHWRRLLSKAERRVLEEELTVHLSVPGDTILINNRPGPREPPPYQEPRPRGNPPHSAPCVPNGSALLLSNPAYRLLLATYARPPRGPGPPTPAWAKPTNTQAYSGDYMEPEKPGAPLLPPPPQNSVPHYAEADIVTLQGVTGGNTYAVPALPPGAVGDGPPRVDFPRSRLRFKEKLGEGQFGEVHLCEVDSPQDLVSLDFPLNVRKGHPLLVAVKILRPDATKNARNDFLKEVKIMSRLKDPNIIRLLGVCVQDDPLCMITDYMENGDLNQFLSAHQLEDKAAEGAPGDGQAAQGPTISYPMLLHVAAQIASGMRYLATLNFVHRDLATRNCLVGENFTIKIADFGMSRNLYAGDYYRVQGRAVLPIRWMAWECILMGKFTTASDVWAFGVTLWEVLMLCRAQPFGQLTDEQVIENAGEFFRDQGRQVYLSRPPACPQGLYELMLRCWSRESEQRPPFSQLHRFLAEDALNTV

Row | SMILES | IC50 [1] | IC50 [2] | Selectivity Score S(1) [3] | Selectivity Score S(10) [3] | Selectivity Score S(35) [3] | # of Hits, S(35) [3] | # of Hits, S(10) [3] | # of Hits, S(1) [3] | Binding affinity score for p38-alpha as percent relative to DMSO control [4] | solubility [5] | Stability in HBSS (buffer) [6] | Stability in plasma [7] | Caco-2 unidirectional permeability (in words) [9] | Liver S9 stability (in words) [10] | Stability in simulated synovial fluid [14] | further results
1 | Cc1ccc(O)cc1Nc1ccnc(Nc2cccc(S(C)(=O)=O)c2)n1 [Compound 1, 4-methyl-3-[[2-(3-methylsulfonylanilino)pyrimidin-4-yl]amino]phenol] | 13 nM | 260 nM | 0.078 | 0.244 | 0.322 | 29 | 22 | 7 | 0.5 % Ctrl | 16 µM (≈ 5.93 µg/mL) | >120 min in buffer | >360 min (all | Very high | Rapid clearance | >5 days | efflux ratio [8]: 4.27; half-life [11]: 20 min; half-life [12]: < 10 min; half-life [13]: < 10 min; AUC(0-t) [15]: 122 ng·h/mL; C0 [15]: 548 ng/mL; clearance [15]: 137 mL/min/kg; half-life [15]: 19.1 min; Vd ([15]; read-out: VSS): 2.11 L/kg
2 | Cc1ccc(O)cc1Nc1ccnc(Nc2ccc(C(N)=O)cc2)n1 [Compound 2, 4-[[4-(5-hydroxy-2-methyl-anilino)pyrimidin-2-yl]amino]benzamide] | 9 nM | 156 nM | 0.033 | 0.089 | 0.244 | 22 | 8 | 3 | 30 % Ctrl | 770 µM (≈ 258 µg/mL) | >120 min in buffer | >360 min (all | Very high | Rapid clearance | >5 days | –
3 | COc1ccc(S(N)(=O)=O)cc1Nc1nccc(N(C)c2ccc(N)cc2)n1 [Compound 3, 3-[[4-(4-amino-N-methyl-anilino)pyrimidin-2-yl]amino]-4-methoxy-benzenesulfonamide] | 55 nM | > 3300 nM | 0.056 | 0.089 | 0.178 | 16 | 8 | 5 | 83 % Ctrl | 13.3 µM (≈ 5.33 µg/mL) | >120 min in buffer | >360 min (all | Very high | Very stable | >5 days | Cartilage damage score, treated versus untreated mice ([16]; 8 and 12 weeks after DMM): significant differences; Morphology of articular cartilage ([16]; 8 weeks after DMM surgery): localized chondrocyte clusters, but no fibrillation; also recorded: only chondrocyte clusters; Average articular cartilage score ([16]; 8 weeks after DMM surgery): 1.00; Morphology of articular cartilage ([16]; 12 weeks after DMM surgery): only localized absence of the proteoglycans; also recorded: only localized proteoglycan degradation; Average articular cartilage score ([16]; 12 weeks after DMM surgery): 2.83; Progressive process of articular cartilage degeneration ([16]; DMM-induced, mouse knee joints): Significant delay; also recorded: dramatically delayed; Osteophytes and other abnormal morphology in subchondral bone and synovial tissue ([16]; mice with or without treatment): not observed; DDR2 positive (stained) cells in articular cartilage [17]: dramatically reduced; also recorded: significant reduction; Mmp-13 positive (stained) cells in articular cartilage [18]: dramatically reduced; also recorded: significant reduction
4 | COc1cc(Nc2nccc(Nc3ccc(N)cc3)n2)cc(S(C)(=O)=O)c1 [Compound 4, N4-(4-aminophenyl)-N2-(3-methoxy-5-(methylsulfonyl)phenyl)pyrimidine-2,4-diamine] | 66 nM | 1570 nM | 0.022 | 0.122 | 0.233 | 21 | 11 | 2 | 87 % Ctrl | 213 µM (≈ 82.1 µg/mL) | >120 min in buffer | >360 min (all | – | Very stable | >5 days | –
